Earlier results as cited in patent publication US20080096915A1, “COMPOSITIONS FOR THE TREATMENT OF METABOLIC DISORDERS” (Greenberg Traurig LLP, priority 2005, published 2008).
One block for each compound: values may come before it.

Assays:
hypertensives = system: hypertensives; set-up: dose or concentration left out as unconfirmed; conditions: 1050 hypertensives, for three months, dose doubled in one third; decreased from 176/104
[1] = system: patients whose blood pressure had not been normalized; conditions: cicletanine 50 and 100 mg per day added to calcium channel blockers, beta blockers or ACE inhibitors
patients = conditions: 150-200 mg/day cicletanine, over 12 months; fell from 128
[2] = system: Dahl salt-sensitive rats with salt-induced hypertension
sulfonylurea receptor = sulfonylurea receptor (Homo sapiens, UniProt Q09428)
[3] = in vivo

Sequence of sulfonylurea receptor (Q09428 whole entry): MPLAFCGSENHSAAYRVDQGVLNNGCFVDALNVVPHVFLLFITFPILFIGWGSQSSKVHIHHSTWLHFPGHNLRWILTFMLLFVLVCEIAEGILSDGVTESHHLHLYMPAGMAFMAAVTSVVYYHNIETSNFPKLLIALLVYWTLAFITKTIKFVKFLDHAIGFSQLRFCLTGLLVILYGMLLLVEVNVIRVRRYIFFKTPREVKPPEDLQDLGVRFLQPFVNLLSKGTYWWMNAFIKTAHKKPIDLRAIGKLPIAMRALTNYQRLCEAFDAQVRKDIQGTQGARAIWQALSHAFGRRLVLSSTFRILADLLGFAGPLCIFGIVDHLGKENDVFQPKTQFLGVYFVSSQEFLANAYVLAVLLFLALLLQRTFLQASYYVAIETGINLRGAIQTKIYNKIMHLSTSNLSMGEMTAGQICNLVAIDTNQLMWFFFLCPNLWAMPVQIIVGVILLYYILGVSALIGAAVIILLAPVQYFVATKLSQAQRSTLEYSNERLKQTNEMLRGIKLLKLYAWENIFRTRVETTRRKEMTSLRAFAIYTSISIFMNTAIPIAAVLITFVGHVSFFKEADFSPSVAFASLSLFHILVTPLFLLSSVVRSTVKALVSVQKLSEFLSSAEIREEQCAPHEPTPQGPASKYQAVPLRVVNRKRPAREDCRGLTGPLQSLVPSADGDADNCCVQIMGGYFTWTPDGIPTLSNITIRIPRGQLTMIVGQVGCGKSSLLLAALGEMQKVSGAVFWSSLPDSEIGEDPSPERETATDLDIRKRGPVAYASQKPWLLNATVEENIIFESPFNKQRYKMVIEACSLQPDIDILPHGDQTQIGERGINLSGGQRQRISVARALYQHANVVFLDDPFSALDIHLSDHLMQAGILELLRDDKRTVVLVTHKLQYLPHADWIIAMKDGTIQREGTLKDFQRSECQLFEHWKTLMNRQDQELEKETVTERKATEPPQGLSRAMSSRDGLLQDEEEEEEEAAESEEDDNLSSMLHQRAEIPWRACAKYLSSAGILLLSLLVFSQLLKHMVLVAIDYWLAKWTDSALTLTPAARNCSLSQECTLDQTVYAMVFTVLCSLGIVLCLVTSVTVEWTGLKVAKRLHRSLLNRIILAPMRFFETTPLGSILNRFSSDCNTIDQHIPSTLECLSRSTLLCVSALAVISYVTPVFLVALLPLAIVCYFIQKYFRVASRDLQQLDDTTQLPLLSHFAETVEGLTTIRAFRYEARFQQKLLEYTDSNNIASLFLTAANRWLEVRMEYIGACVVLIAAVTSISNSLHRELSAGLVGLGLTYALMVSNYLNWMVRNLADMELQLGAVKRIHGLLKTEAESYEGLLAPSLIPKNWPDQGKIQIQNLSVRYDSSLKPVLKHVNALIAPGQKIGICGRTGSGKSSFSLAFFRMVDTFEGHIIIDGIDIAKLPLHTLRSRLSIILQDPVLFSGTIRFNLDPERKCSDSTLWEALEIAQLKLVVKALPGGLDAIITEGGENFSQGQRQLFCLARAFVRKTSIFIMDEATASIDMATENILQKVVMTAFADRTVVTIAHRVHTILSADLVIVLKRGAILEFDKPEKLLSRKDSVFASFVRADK
Sequence of sulfonylurea receptor (Q14654 whole entry partner): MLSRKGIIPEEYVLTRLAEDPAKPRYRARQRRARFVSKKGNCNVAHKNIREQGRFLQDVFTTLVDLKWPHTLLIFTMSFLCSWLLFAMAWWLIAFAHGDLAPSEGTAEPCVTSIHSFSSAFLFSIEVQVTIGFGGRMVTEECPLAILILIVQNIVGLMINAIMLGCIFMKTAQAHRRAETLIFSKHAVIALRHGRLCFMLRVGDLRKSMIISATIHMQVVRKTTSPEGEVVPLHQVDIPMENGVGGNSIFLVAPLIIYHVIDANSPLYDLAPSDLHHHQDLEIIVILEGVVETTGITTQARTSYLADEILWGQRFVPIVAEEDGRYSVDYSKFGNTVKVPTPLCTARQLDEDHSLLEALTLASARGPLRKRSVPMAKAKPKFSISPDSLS

SMILES: Cc1ncc2c(c1O)COC2c1ccc(Cl)cc1 (racemic) [cicletanine, +−3-(4-chlorophenyl)-1,3-dihydro-6-methylfuro-[3,4-c]pyridin-7-ol]
peak insulin response to tolbutamide, following cicletanine administration (healthy subjects; 10 healthy subjects, single intravenous tolbutamide after 7 days of cicletanine 100 mg per day): 17.4 mU/L
hypoglycemic effect of tolbutamide following cicletanine administration (healthy subjects; after 7 days of cicletanine 100 mg per day): did not change
blood pressure after treatment (hypertensives): 151/86
patients whose blood pressure was normalized [1]: 50 % of patients
average triglyceride level after treatment (patients): 104 mg/dL
high-density lipoprotein (HDL) cholesterol [2]: increased
low-density lipoprotein (LDL) cholesterol [2]: significantly decreased

SMILES: CCCCNC(=O)NS(=O)(=O)c1ccc(C)cc1 [tolbutamide]
peak insulin response to tolbutamide, before cicletanine administration (healthy subjects; 10 healthy subjects, single intravenous dose of tolbutamide alone): 29.2 mU/L

concentration range that saturates receptors (sulfonylurea receptor): low nanomolar
SMILES: Cc1cnc(C(=O)NCCc2ccc(S(=O)(=O)NC(=O)NC3CCCCC3)cc2)cn1 [glipizide]

plasma half-life [3]: 4 to 11 h
SMILES: COc1ccc(Cl)cc1C(=O)NCCc1ccc(S(=O)(=O)NC(=O)NC2CCCCC2)cc1 [glyburide]
